Measurements reported in paper PMC10224444, “Novel Perspectives on the Design and Development of a Long-Acting Subcutaneous Raltegravir Injection for Treatment of HIV—In Vitro and In Vivo Evaluation” (Pharmaceutics, 2023).
Where “and” joins values, the source holds several entries; their conditions need not be identical. Identical values can stand only once.

Tests used:
[1] = design: method as in PMID 33979164; conditions: pH 7.0, within 1 h; cited from earlier work
[2] = design: method as in PMID 33979164; conditions: cited from earlier work
[3] = design: method as in PMID 33979164; conditions: cited from earlier work; remark: listed apart in the source
[4] = In vitro release test in 50% Tris buffer (pH 7.4, 34 °C), HPLC; format: physicochemical; conditions: 25 µM probe
Protocol: (§1) Probes 14–15 and 20–21 stock solutions were prepared at 1000 µM (1 mM) in a 1:1 mixture of MeCN/water, followed by serial dilution with deionised water to give a 50 µM working concentration. Each experiment was run in triplicate after dilution of 0.5 mL of the stock solution with 0.5 mL of PBS (pH 7.4) or Tris buffer (pH 7.4), giving a final assay concentration of 25 µM for the probes. The samples were incubated at 34 °C to mimic the conditions found in SC tissue. Every day, a 2 µL aliquot of each sample was subjected to HPLC analysis using an Agilent 1260 Infinity instrument, with conditions as follows. Column: Agilent ZORBAX Eclipse Plus C18 Rapid Resolution, 3.5 μm (4.6 × 100 mm), pore size (95 Å); column temperature (35 °C). The mobile phases were solvent A: 0.1% TFA in ultrapure H2O and solvent B: 0.1% TFA in MeCN. The injection volume was 2 μL and the flow rate was kept at 1.0 mL/min. The analysis was performed using a gradient elution of 5–100% of solvent B in solvent A over 9 min, then maintained for a further 1 min at two wavelengths: 254 nm and 214 nm. The retention times of CTG and probes 14–15 and 20–21 were 4.13, 4.27, 4.93, 5.55, and 5.71 min, respectively. A calibration curve for the free CTG fluorophore was constructed over the concentration range of 10–100 µM at pH 7.4. The data were fit by linear regression to the equation y = 14.615x − 0.067, where y is the peak area of the analyte and x is the analyte concentration (µM). The correlation coefficient (R2) was computed as 0.999, confirming the linearity of used method under the specified measured concentrations.
(§2) In vitro Release assays for probes 14–15 and 20–21 were conducted using pH and temperature conditions similar to those of SC tissue (pH 7.4 and 34 °C). Test compounds were dissolved in either MeCN/PBS (1:1, pH 7.4) or MeCN/Tris buffer (1:1, pH 7.4) at 25 µM, then incubated at 34 °C. Aliquots were taken daily and analysed by HPLC and LC-MS until complete fluorophore release was achieved. HPLC was preferred over fluorometric-based assay to study the stability of the synthesised probes because of the bleaching effect that may occur to the fluorophore over the long analysing periods. Photobleaching is the inability of the fluorophore to fluoresce due to the fluorophore instability upon repeated exposure to light over long periods. It can be a particular problem for fluorescence-based assays, thereby rationalising the choice of HPLC in the current work.

[5] = In vitro release test in 50% PBS (pH 7.4, 34 °C), HPLC; format: physicochemical; conditions: for half-life: 50% PBS pH 7.4, 25 µM CTG probes, 100 µM prodrug 25, calculated as 0.69/kobs, read-out: t½ (half-life of payload release) (converted)
Protocol: as §1
Likewise, a test solution of prodrug 25 was incubated in 50% PBS at 100 µM final concentration, and analysed using the same HPLC method but with detection at 254 nm only. A higher concentration of 25 was used due to its relatively weaker absorption at 254 nm, compared with CTG. The retention times of RAL and prodrug 25 were 4.47 and 5.55 min, respectively. A calibration curve of RAL was constructed over the range 50–1000 µM. The data were fit by linear regression as before to give the equation y = 5.1961x − 20.064, with a similar goodness of fit (R^2 ≥ 0.999).
as §2
Similarly to the assays above, prodrug 25 (100 µM) was incubated in 50% PBS at 34 °C, and aliquots analysed daily by HPLC and LC-MS until full RAL release was achieved.

[6] = Pharmacokinetic study after single SC injection in BALB/c mice; format: in vivo; conditions: mouse, plasma level of the dosed compound, single SC 30 mg/kg, male BALB/c mice, n = 3
Protocol: The pharmacokinetic profile of prodrug 25 was evaluated in mice, in a study undertaken at WuXi AppTec. Prodrug 25 was dissolved in a sterile vehicle of DMSO/Solutol HS15/water (10:10:80) to give a clear solution with a final concentration of 6 mg/mL. The same procedure was used to prepare a 6 mg/mL solution of RAL as a control. Six male BALB/c mice were used, each weighing 18–25 g and aged between 7–9 weeks (three per group). A single 30 mg/kg dose of prodrug 25 was administered to each animal in the treatment group (subcutaneously, in the thoracic region). Similarly, RAL (30 mg/kg) was administered to each animal in the control group. Blood samples were taken at the time points indicated below, up to the experiment endpoint (96 h).
For each animal, blood samples (30 μL each) were collected from the submandibular or saphenous vein over a period of 96 h, at the following time points: zero/pre-dose; then 0.25, 0.5, 1, 2, 3, 4, 5, 6, 24, 48, and 96 h. All samples were transferred into pre-chilled commercial K2EDTA tubes and placed on wet ice until processing for plasma, which was obtained by centrifugation at 4 °C and 3200× g for 10 min, within 30 min of sampling. The plasma samples were transferred to polypropylene tubes, snap-frozen on dry ice, and kept at −70 ± 10 °C until LC-MS/MS analysis.
An LC-MS/MS method was developed to measure the concentrations of prodrug 25 and RAL in the biological matrix. Two mobile phases were used: mobile phase A (0.025% NH4OH and 2 mM NH4OAc in 95:5 v/v water/MeCN) and mobile phase B (0.025% NH4OH and 2 mM NH4OAc in 5:95 v/v water/MeCN). A UPLC method was performed using an LC-MS/MS-BM Triple Quad 6500 plus system with an ACQUITY UPLC BEH C18 1.7 μm column (2.1 × 50 mm) at a flow rate of 0.65 mL/min. The assay time was 2.5 min, and the solvent B composition was as follows: 10–100% (0.2–1.4 min), 30% (1.41–1.7 min), 95% (2.0–2.4 min), and 10% (2.41–2.5 min). The retention times for the prodrug, RAL and the internal standards (tolbutamide and verapamil) were 0.76, 1.04, 0.66, and 0.97 min, respectively. Quantification was performed by monitoring the transition of m/z 835.3 [M+H]^+ to 457.2 for prodrug 25, representing the cyclisation of the linker with the amidic RAL such as in side-product 22; whereas for RAL, the transition m/z 445.2 [M+H]^+ to 361.2 was followed, representing the loss of the 2-methyl-1,3,4-oxadiazole moiety as the main fragmentation pathway. For the internal standards, the m/z transition from 455.2 [M+H]^+ to 164.9 was used for verapamil (corresponding to formation of the verapamil fragment [CH2CH2-(3,4-dimethoxy phenyl)]^+), and for tolbutamide, the transition of m/z of 271.1 [M+H]^+ to 155.1 was used, representing formation of the [CH3-Ph-SO2]^+ fragment. […] The method was linear over the measured standard concentrations for 25 and RAL. The mean plasma concentration was determined for 25 and RAL (as metabolite or control) at each sampling time point. Pharmacokinetic parameters were then calculated by non-compartmental analysis of plasma concentration/time profiles using the Phoenix WinNonlin 6.3 software. The computed parameters were as follows: peak plasma concentration (Cmax); the time over which the initial concentration is reduced to half (t½); area under the plasma concentration versus time curve from time zero to 96 h (AUC 0–96 h); and mean residence time from time zero to 96 h (MRT 0–96 h).
Since in vitro models are not fully predictive of in vivo pharmacokinetics, especially for prodrugs, assessment of these characteristics still relies on in vivo studies. Therefore, the pharmacokinetic profile of prodrug 25 was evaluated in mice. Compound 25 and the control (RAL) were dissolved in DMSO/Solutol HS15/water (10:10:80). For a single SC injection of 25 (30 mg/kg) in BALB/c mice (n = 3), the plasma concentrations of prodrug and released RAL were measured at the following time points: zero/pre-dose; then 0.25, 0.5, 1, 2, 3, 4, 5, 6, 24, 48, and 96 h. […]

[7] = 50% PBS, pH 7.4, 34 °C, 25 µM probe, 1 d
[8] = 50% PBS, pH 7.4, 34 °C, 25 µM probe

| half-life ([5]; 50% PBS buffer) | Structure (SMILES) | CTG release after 1 d in 50% Tris buffer [4] | CTG fluorophore released after 1 d [5, 7] | CTG fluorophore released after 2 d [5, 8] | half-life [5] | time to maximal release of payload ([5]; 50% PBS, pH 7.4, 34 °C) | further results |
| --- | --- | --- | --- | --- | --- | --- | --- |
|  | CNCCOC(=O)OCOc1c(-c2ccc(Oc3ccc(OC(F)(F)F)cc3)cc2F)c(C)nc2cc(OC)c(Cl)cc12 [Compound 1] |  |  |  |  |  | parent compound released within 1 h [1]: > 90%; aqueous solubility compared with the parent compound [2]: enhanced; oral bioavailability compared with the parent compound [3]: enhanced |
| 40.6 h | C#CCCCNCCCCCOC(=O)OCOc1ccc2c(-c3ccc(C(=O)O)cc3C)c3ccc(=O)cc-3oc2c1.Cl [Compound 14, N-(5-(((((9-(4-Carboxy-2-methylphenyl)-3-oxo-3H-xanthen-6-yl)oxy)methoxy)carbonyl)oxy)pentyl)pent-4-yn-1-aminium chloride] | 89.2% | 36% | 58% |  |  | CTG fluorophore released after 9 d ([5]; 50% PBS, pH 7.4, 34 °C, 25 µM probe, 9 d): 98% |
|  | C#CCCCNCCCCCCOC(=O)OCOc1ccc2c(-c3ccc(C(=O)O)cc3C)c3ccc(=O)cc-3oc2c1.Cl [Compound 15, 6-(((((9-(4-Carboxy-2-methylphenyl)-3-oxo-3H-xanthen-6-yl)oxy)methoxy)carbonyl)oxy)-N-(pent-4-yn-1-yl)hexan-1-aminium chloride] | 86.2% | 29% | 50% | 47.5 h |  | CTG fluorophore released after 10 d ([5]; 50% PBS, pH 7.4, 34 °C, 25 µM probe, 10 d): 98% |
|  | Cc1cc(C(=O)O)ccc1-c1c2ccc(=O)cc-2oc2cc(OCOC(=O)OCCCCCNCCCc3cn(CCP(=O)(O)O)nn3)ccc12.Cl [Compound 20, 5-(((((9-(4-Carboxy-2-Methylphenyl)-3-Oxo-3H-Xanthen-6-yl)Oxy)Methoxy)Carbonyl)Oxy)-N-(3-(1-(2-Phosphonoethyl)-1H-1,2,3-triazol-4-yl)Propyl)Pentan-1-Aminium Chloride] | 82.5% | 25% | 41% | 69.1 h |  | CTG fluorophore released after 13 d ([5]; 50% PBS, pH 7.4, 34 °C, 25 µM probe, 13 d): 98% |
|  | Cc1cc(C(=O)OC(C)(C)C)ccc1-c1c2ccc(=O)cc-2oc2cc(OCOC(=O)OCCCCCCNCCCc3cn(CCP(=O)(O)O)nn3)ccc12.Cl [Compound 21, 6-(((((9-(4-(Tert-Butoxycarbonyl)-2-Methylphenyl)-3-Oxo-3H-Xanthen-6-yl)Oxy)Methoxy)Carbonyl)Oxy)-N-(3-(1-(2-Phosphonoethyl)-1H-1,2,3-Triazol-4-yl)Propyl)Hexan-1-Aminium Chloride] | 80.9% | 20% | 33% | 75.6 h | 15 days | CTG fluorophore released after 15 d ([5]; 50% PBS, pH 7.4, 34 °C, 25 µM probe, 15 d): 98% |
| 463 h | Cc1nnc(C(=O)NC(C)(C)c2nc(C(=O)NCc3ccc(F)cc3)c(OCOC(=O)OCCCCCCNCCCc3cn(CCP(=O)(O)O)nn3)c(=O)n2C)o1 [Compound 25, 6-(((((4-((4-Fluorobenzyl)Carbamoyl)-1-Methyl-2-(2-(5-Methyl-1,3,4-Oxadiazole-2-Carboxa-Mido)Propan-2-Yl)-6-Oxo-1,6-Dihydropyrimidin-5yl)Oxy)Methoxy)Carbonyl)Oxy)-N-(3-(1-(2-Phosphonoethyl)-1H-1,2,3-Triazol-4-Yl)Propyl)Hexan-1-Aminium Chloride] |  |  |  |  | 45 days | Cmax [6]: 4550 ng/mL; Tmax [6]: 0.25 h; AUC(0-t) ([6]; read-out: AUC 0–96 h): 3270 ng·h/mL; half-life ([6]; read-out: t½ (converted)): 0.85 h; release kinetics (order) ([5]; 50% PBS, pH 7.4): first-order kinetics; RAL released after 1 d ([5]; 50% PBS, pH 7.4, 34 °C, 100 µM prodrug, 1 d): 8.4%; RAL released after 10 d ([5]; 50% PBS, pH 7.4, 34 °C, 100 µM prodrug, 10 d): 31.5%; RAL released after 45 d (plateau) ([5]; 50% PBS, pH 7.4, 34 °C, 100 µM prodrug, 45 d): 82% and 82.1%; degree of side-product (27) formation ([5]; 50% PBS, pH 7.4, 34 °C, hydrolysis of RAL oxadiazole, accounts for unreleased RAL): 15.2% |
